Data reported in article PMC9769502 (Microbiology Spectrum, 2022).
Where two headings read alike, the source gives them in different places. No end group written: not given here.

What was measured:
[1] = tested on: Leishmania donovani axenic amastigotes
Method: We utilized a previously developed high-throughput screening assay using transgenic axenic amastigotes expressing a red fluorescent protein, mCherry. Changes in mCherry fluorescence were normalized to 50 μM miltefosine in order to quantify parasite inhibition ([52]). In total, 5 scaffold 25-mer peptides and 475 synthetic 25-mer peptide variants were screened (Fig. 1). […] The assay was repeated, and the average percent parasite killing was determined.
Axenic amastigotes were differentiated as described previously ([69]).
Axenic amastigotes were differentiated as described previously ([69]); briefly, transgenic L. donovani promastigotes expressing mCherry were differentiated by pH and temperature shifts. Amastigotes were seeded into 96-well plates at 5 × 10^6 cells/mL and incubated for 48 h in the presence of decreasing drug concentrations, starting at 20 μM, along with the appropriate solvent controls. Fluorescence was monitored (587-nm excitation/610-nm emission) over 48 h using a FlexStation 3 benchtop multimode reader (Molecular Devices). […] Thus, changes in mCherry fluorescence were normalized to the 50 μM miltefosine control in order to quantify parasite inhibition. Each assay was performed in triplicate. The IC50 values were calculated by nonlinear regression analysis using GraphPad Prism 9.0 for Windows.

THP-1 macrophages = assay: Cytotoxicity against THP-1 macrophages (CellTiter-Blue); type: cell-based, human
Method: THP-1 (human acute monocytic leukemia-derived) host macrophages were cultured in RPMI 1640 supplemented with 10% FCS and a penicillin-streptomycin antibiotic solution (10,000 U/mL penicillin, 10,000 μg/mL streptomycin) at 37°C with 5% CO2. THP-1 cells were incubated with 0.25 μM phorbol 12-myristate […] (PMA) for 48 h to differentiate into mature macrophages. Differentiated macrophages were seeded into 96-well plates at 5 × 10^6 cells/mL and incubated for 48 h in the presence of 20 μM antimicrobial peptides along with the appropriate solvent controls. Cell viability assays were conducted using CellTiter-Blue (Promega), based on resazurin reduction. After the 48-h incubation period, CellTiter-Blue reagent was added to cells for 4 h at 37°C, and fluorescence was measured (555-nm excitation/580-nm emission) using a FlexStation 3 benchtop multimode reader (Molecular Devices). Each assay was performed in triplicate. The CC50 values were calculated by nonlinear regression analysis using GraphPad Prism 9.0 for Windows.

[2] = read-out: Axenic amastigotes Mean IC50 ± SD, L. donovani mCherry axenic amastigotes, 48 h, fluorescence normalized to 50 μM miltefosine, highest concentration 20 μM, mean of three replicates
[3] = read-out: Axenic amastigotes Mean IC50 ± SD

Sequence: AGKETIRQFLKKTIQEKGKRAKIWW [Syn-larvacin 69]
- IC50 ([1]; 48 h): 4.14 ± 0.11 µM
- THP-1 macrophage CC50 (THP-1 macrophages): > 20 µM
- THP-1 macrophage CC50 (THP-1 macrophages; 48 h): >20 µM

Sequence: AGKETIRQKLKNEIKKKGRKAVIAW [Syn-safencin 7]
- IC50 ([1]; 48 h): 0.77 ± 0.08 µM
- THP-1 macrophage CC50 (THP-1 macrophages): > 20 µM
- THP-1 macrophage CC50 (THP-1 macrophages; 48 h): >20 µM

Sequence: AGKETIRQKWKNEIKKKGRKAVIAW [Syn-safencin-39]
- IC50 [1, 2]: 0.72 µM
- THP-1 macrophage CC50 (THP-1 macrophages): < 20 µM

Sequence: AGKETIRQYLKNEIKKKGRKAVIWW [Syn-safencin-81]
- IC50 [1, 2]: 3.15 µM
- THP-1 macrophage CC50 (THP-1 macrophages): < 20 µM

Sequence: AGKETIRQYLKNEIKKKGRKAVWAW [Syn-safencin 73]
- IC50 ([1]; 48 h): 0.35 ± 0.08 µM
- THP-1 macrophage CC50 (THP-1 macrophages): > 20 µM
- THP-1 macrophage CC50 (THP-1 macrophages; 48 h): >20 µM

Sequence: AGKETIRQYLKNEIKKKGRKAWIAW [Syn-safencin-65]
- IC50 [1, 2]: 1.01 µM
- THP-1 macrophage CC50 (THP-1 macrophages): < 20 µM

Sequence: AGKETIRQYLKNKIKKKWRKAVIAW [Syn-safencin-51]
- IC50 [1, 2]: 6.36 µM
- THP-1 macrophage CC50 (THP-1 macrophages): < 20 µM

Sequence: AGKETIRQYLKNKWKKKGRKAVIAW [Syn-safencin-43]
- IC50 [1, 2]: 11.2 µM
- THP-1 macrophage CC50 (THP-1 macrophages): < 20 µM

Sequence: AGKETIRQYWKNKIKKKGRKAVIAW [Syn-safencin-35]
- IC50 [1, 2]: 0.29 µM
- THP-1 macrophage CC50 (THP-1 macrophages): < 20 µM

Sequence: AGKETIRWFLKKKIWEGKKRATIAW [Syn-larvacin-52]
- IC50 [1, 2]: 1.86 µM
- THP-1 macrophage CC50 (THP-1 macrophages): < 20 µM

Sequence: AGKEWIFQRLKKKIQEKGKRATIAW [Syn-larvacin-19]
- IC50 [1, 2]: 0.73 µM
- THP-1 macrophage CC50 (THP-1 macrophages): < 20 µM

Sequence: AGKKTIRQYLKNEIKKKGRKAVIAW [Syn-safencin 2]
- IC50 ([1]; 48 h): 2.42 ± 0.09 µM
- THP-1 macrophage CC50 (THP-1 macrophages): > 20 µM
- THP-1 macrophage CC50 (THP-1 macrophages; 48 h): >20 µM

Sequence: AGKKTIRQYLKNEIKKKGRKAVIWW [Syn-safencin 82]
- IC50 ([1]; 48 h): 0.375 ± 0.1 µM
- THP-1 macrophage CC50 (THP-1 macrophages): > 20 µM
- THP-1 macrophage CC50 (THP-1 macrophages; 48 h): >20 µM

Sequence: AGKKTIRQYLKNEIKKKGRKAVWAW [Syn-safencin-74]
- IC50 [1, 2]: 3.51 µM
- THP-1 macrophage CC50 (THP-1 macrophages): < 20 µM

Sequence: AGKKTIRQYLKNEIKKKGRKAWIAW [Syn-safencin 66]
- IC50 ([1]; 48 h): 3.64 ± 0.1 µM
- THP-1 macrophage CC50 (THP-1 macrophages): > 20 µM
- THP-1 macrophage CC50 (THP-1 macrophages; 48 h): >20 µM

Sequence: AGKKTIRQYLKNKIKKKGRKAVWAW [Syn-safencin-76]
- IC50 [1, 2]: 16.3 µM
- THP-1 macrophage CC50 (THP-1 macrophages): < 20 µM

Sequence: AGKKTIRQYLKNKIKKKGRKAWIAW [Syn-safencin-68]
- IC50 [1, 2]: 0.56 µM
- THP-1 macrophage CC50 (THP-1 macrophages): < 20 µM

Sequence: AGKKTIRQYLKNKIKKKGRKWVIAW [Syn-safencin-60]
- IC50 [1, 2]: 1.31 µM
- THP-1 macrophage CC50 (THP-1 macrophages): < 20 µM

Sequence: AGKKTIRQYLKNKIKKKWRKAVIAW [Syn-safencin-52]
- IC50 [1, 2]: 0.58 µM
- THP-1 macrophage CC50 (THP-1 macrophages): < 20 µM

Sequence: AGKKTIRQYLKNKWKKKGRKAVIAW [Syn-safencin-44]
- IC50 [1, 2]: 0.63 µM
- THP-1 macrophage CC50 (THP-1 macrophages): < 20 µM

Sequence: AGKKTIRQYWKNKIKKKGRKAVIAW [Syn-safencin-36]
- IC50 [1, 2]: 1.29 µM
- THP-1 macrophage CC50 (THP-1 macrophages): < 20 µM

Sequence: AGRQALTKYLLEELRKRGKKWFIAW [Syn-xiamencin-36]
- IC50 [1, 3]: 1.52 µM
- THP-1 macrophage CC50 (THP-1 macrophages): < 20 µM

Sequence: AGRQALTKYLLEELRKRWKKAFIAW [Syn-xiamencin-20]
- IC50 [1, 2]: 0.47 µM
- THP-1 macrophage CC50 (THP-1 macrophages): < 20 µM

Sequence: AGRQALTLELKEYLRKRGKKWFIAW [Syn-xiamencin-35]
- THP-1 macrophage CC50 (THP-1 macrophages): < 20 µM

Sequence: AGRQALTLELKEYLRKRWKKAFIAW [Syn-xiamencin-19]
- IC50 [1, 2]: 2.15 µM
- THP-1 macrophage CC50 (THP-1 macrophages): < 20 µM

Sequence: AGRQALTLYLKEELRKFGKKWRIAW [Syn-xiamencin-37]
- IC50 [1, 3]: 3.71 µM
- THP-1 macrophage CC50 (THP-1 macrophages): < 20 µM

Sequence: AGRQALTLYLKEELRKFWKKARIAW [Syn-xiamencin-21]
- IC50 [1, 2]: 0.59 µM
- THP-1 macrophage CC50 (THP-1 macrophages): < 20 µM

Sequence: AGRQALTLYLKEELRKRGKKWFIAW [Syn-xiamencin-33]
- IC50 [1, 2]: 2.66 µM
- THP-1 macrophage CC50 (THP-1 macrophages): < 20 µM

Sequence: AGRQALTLYLKEELRKRWKIAFKAW [Syn-xiamencin-22]
- IC50 [1, 2]: 2.21 µM
- THP-1 macrophage CC50 (THP-1 macrophages): < 20 µM

Sequence: AGRQALWKYLLEELRKRGKKAFIAW [Syn-xiamencin-44]
- IC50 [1, 3]: 1.18 µM
- THP-1 macrophage CC50 (THP-1 macrophages): < 20 µM

Sequence: AGRQALWLYLKEELRKFGKKARIAW [Syn-xiamencin-45]
- IC50 [1, 3]: 6.13 µM
- THP-1 macrophage CC50 (THP-1 macrophages): < 20 µM

Sequence: AGRQALWLYLKEELRKRGKIAFKAW [Syn-xiamencin-46]
- IC50 [1, 3]: 11.8 µM
- THP-1 macrophage CC50 (THP-1 macrophages): < 20 µM

Sequence: AGRQWLTLELKEYLRKRGKKAFIAW [Syn-xiamencin-51]
- IC50 [1, 2]: 3.66 µM
- THP-1 macrophage CC50 (THP-1 macrophages): < 20 µM
